Measured values as given in patent publication US20220387457A1 (Qlaris Bio, Inc., priority 2020, published 2022).

Experiments:
[1] = Toxicokinetics after escalating intravenous doses of CKLP1 in beagles; format: in vivo, beagle dog; conditions: male, beagle, dog, in vivo, iv
Description: Two beagles (one male and one female) were intravenously injected with escalating doses of CKPL1 (0.05 mg/kg, 0.5 mg/kg, 1.5 mg/kg, 3 mg/kg, and 5 mg/kg) to assess the toxicity of CKLP1. The injection was done through the cephalic vein and CKLP1 was administered in a phosphate buffered saline solution ((0.096% sodium phosphate dibasic, 0.089% sodium dihydrogen orthophosphate monohydrate, 0.83% sodium chloride) pH 6.5±0.1 in sterile water for injection USP). The dosing schedule is shown below in Table 3.
The following parameters and endpoints were evaluated: mortality, clinical observations, body and organ weights, and food consumption. Bioanalytical samples for toxicokinetic parameters (for both CKLP1 and leveromakalim) were collected after each dose level (days 1, 3, 8, 10, and 14) at predose, 1, 3, 6, 8, and 24 hours postdose. Animals were released from the study after completion of the bioanalytical sample collection schedule.
Toxicokinetics (TK) were determined based on the individual exposures for each animal on each sampled study day (days 1, 3, 8, 10, and 14). […] Predose samples had no quantifiable exposure in any animal on any day, with the exception of the female dog on day 10. The predose concentration for the female dog on day 10 was excluded from the TK analysis in order to allow for estimation of the IV C0.

[2] = Plasma pharmacokinetics, 28-day topical ophthalmic dosing in beagle dogs; conditions: dog, in vivo
Description: In the study, dogs (3 males and 3 females) received bilateral daily topical administration of 40 μL/eye of 2.0%, 4.0%, or 8.0% as measured in mg/mL (equivalent to 0.8, 1.6, or 3.2 mg CKLP1 per eye) of CKLP1 in phosphate buffered saline. Based on an average male dog weight of 7.9 kg at the start of the study, these doses were equivalent to 0.20 mg/kg, 0.41 mg/kg, or 0.81 mg/kg and based on an average female dog weight of 6.0 kg at the start of the study, these doses were equivalent to 0.27 mg/kg, 0.53 mg/kg, or 1.07 mg/kg. Blood was collected for toxicokinetic analysis pre-dose and at 1, 2, 4, 8, 12, and 24 hours post dosing on days 1 and 28. In addition, 2 animals of each gender were allowed 336 hours (14 days) of recovery time following the final dose, at which point final blood samples were obtained.

[3] = female, beagle, topical or ocular, 0.27 mg/kg
[4] = female, beagle, topical or ocular, 1.07 mg/kg
[5] = female, beagle, topical or ocular, […]
[6] = male, beagle, topical or ocular, 0.2 mg/kg
[7] = male, beagle, topical or ocular, 0.41 mg/kg
[8] = male, beagle, topical or ocular, 0.81 mg/kg

## CC1(C)Oc2ccc(C#N)cc2[C@@H](N2CCCC2=O)[C@@H]1OP(=O)(O)O [CKLP1]
[1]; 0.5 mg/kg
  C0: 3580 ng/mL
  Cmax: 2600 ng/mL
  RAUC: 12.8
  Tlast: 24.0 h
  Tmax: 1 h
  Vd: 0.143 L/kg
  clearance: 0.583 mL/min/kg
  half-life: 2.84 h
  λZ range: 3 to 24 h
[1]; 1.5 mg/kg
  AUC(0-inf): 43300 ng·h/mL
  AUC(0-t): 43200 ng·h/mL
  C0: 10400 ng/mL
  Cmax: 7690 ng/mL
  RAUC: 38.6
  Tlast: 24.0 h
  Tmax: 1 h
  Vd: 0.146 L/kg
  clearance: 0.578 mL/min/kg
  half-life: 2.91 h
  λZ range: 1 to 24 h
[1]; 3 mg/kg
  AUC(0-inf): 89000 ng·h/mL
  AUC(0-t): 85100 ng·h/mL
  C0: 18500 ng/mL
  Cmax: 14400 ng/mL
  RAUC: 76.0
  Tlast: 24.0 h
  Tmax: 1 h
  Vd: 0.303 L/kg
  clearance: 0.562 mL/min/kg
  half-life: 6.22 h
  λZ range: 6 to 24 h
[1]; 5 mg/kg
  AUC(0-inf): 160000 ng·h/mL
  AUC(0-t): 159000 ng·h/mL
  C0: 25900 ng/mL
  Cmax: 22400 ng/mL
  RAUC: 142
  Tlast: 24.0 h
  Tmax: 1 h
  Vd: 0.156 L/kg
  clearance: 0.522 mL/min/kg
  half-life: 3.47 h
  λZ range: 1 to 24 h
[2]; beagle, mean T1/2 of CKLP1
  half-life: 3.32 to 6.18 h
[2]; beagle, terminal elimination half-life
  half-life: 3 to 6 h
[2]; both sexes, beagle
  concentration at 336 h: < 2 ng/mL
[2]; both, beagle
  predose levels of CKLP1 on day 28, times lower than peak plasma concentrations: 16-25 times
[2]
  accumulation of CKLP1 on day 28 relative to day 1: no accumulation
  time of Cmax of CKLP1: 1 to 2 h
[2]; [3]
  AUC0-last: 545 ng·h/mL
  AUC(0-inf): 660 ng·h/mL
  Cmax: 80.2 ng/mL
  Tmax: 2 h
  t1/2: 3.68 h
[2]; female, beagle, topical or ocular, 0.27 mg/kg, AUC0-last
  AUC(0-t): 496 ng·h/mL
[2]; female, beagle, topical or ocular, 0.27 mg/kg, Cmax
  Cmax: 55.5 ng/mL
[2]; female, beagle, topical or ocular, 0.27 mg/kg, t1/2
  half-life: 4.12 h
[2]; [4]
  AUC0-last: 1200 ng·h/mL
  AUC(0-inf): 1860 ng·h/mL
  Cmax: 139 ng/mL
  Tmax: 2 h
  t1/2: 5.15 h
[2]; female, beagle, topical or ocular, 1.07 mg/kg, AUC0-last
  AUC(0-t): 1480 ng·h/mL
[2]; female, beagle, topical or ocular, 1.07 mg/kg, Cmax
  Cmax: 156 ng/mL
[2]; female, beagle, topical or ocular, 1.07 mg/kg, t1/2
  half-life: 4.92 h
[2]; [5]
  AUC0-last: 1750 ng·h/mL
  Tmax: 2 h
[2]; female, beagle, topical or ocular, […], t1/2
  half-life: 6.18 h
[2]; [6]
  AUC0-last: 272 ng·h/mL
  AUC(0-inf): 299 ng·h/mL
  Cmax: 47.0 ng/mL
  Tmax: 1 h
  t1/2: 3.44 h
[2]; male, beagle, topical or ocular, 0.2 mg/kg, AUC0-last
  AUC(0-t): 231 ng·h/mL
[2]; male, beagle, topical or ocular, 0.2 mg/kg, Cmax
  Cmax: 36.5 ng/mL
[2]; male, beagle, topical or ocular, 0.2 mg/kg, t1/2
  half-life: 3.69 h
[2]; [7]
  AUC0-last: 381 ng·h/mL
  AUC(0-inf): 571 ng·h/mL
  Cmax: 57.3 ng/mL
  Tmax: 1 h
  t1/2: 3.32 h
[2]; male, beagle, topical or ocular, 0.41 mg/kg, AUC0-last
  AUC(0-t): 520 ng·h/mL
[2]; male, beagle, topical or ocular, 0.41 mg/kg, Cmax
  Cmax: 73.7 ng/mL
[2]; male, beagle, topical or ocular, 0.41 mg/kg, t1/2
  half-life: 4.26 h
[2]; [8]
  AUC0-last: 1260 ng·h/mL
  AUC(0-inf): 1580 ng·h/mL
  Tmax: 2 h
  t1/2: 5.08 h
[2]; male, beagle, topical or ocular, 0.81 mg/kg, AUC0-last
  AUC(0-t): 1520 ng·h/mL
[2]; male, beagle, topical or ocular, 0.81 mg/kg, CKLP1, Male, topical 8.0% CKLP1 daily, Day 1, read-out: Cmax
  Cmax: 166 ng/mL
[2]; male, beagle, topical or ocular, 0.81 mg/kg, CKLP1, Male, topical 8.0% CKLP1 daily, Day 28, read-out: Cmax
  Cmax: 147 ng/mL
[2]; male, beagle, topical or ocular, 0.81 mg/kg, t1/2
  half-life: 4.82 h
[2]; male, beagle, topical or ocular, 8 %, day 28, males, read-out: mean Cmax at NOAEL
  Cmax: 147 ng/mL
[2]; male, beagle, topical or ocular, 8.0%, day 28, males, read-out: mean AUC Tlast at NOAEL
  AUC(0-t): 1260 ng·h/mL
